Experimental findings from PMC10140581, “Development and evaluation of novel artemisinin-isatin hybrids with potential anti-leukemic cytotoxicity” (Frontiers in Oncology, 2023) are described below.

Data set [1] relates to K562 human myeloid leukemia cell line. In words: MTT antiproliferative assay, K562. It counts as cell-based. How it is done:
(§1) The antiproliferative activity and cytotoxicity of ester tethered ART-isatin hybrids 7a-u against human myeloid leukemia cell lines (K562 CM-0130 purchased from Procell and K562/ADR AW-CELLS-H0187 purchased from AnWei-sci), human acute lymphoblastic leukemia cell line (CCRF-CEM CL-0058 purchased from Procell) as well as cytotoxicity towards normal human peripheral blood mononuclear cells (PBMCs 230470, purchased from Mingzhoubio) were assessed by 3-(4,5-dimethylthiazol-2-yl)-2,5-diphenyltetrazolium bromide (MTT) assay.
(§2) Medium in wells was replaced after 24 h with fresh medium containing the tested compounds in DMSO (1% v/v) and incubated for 72 h. […] 3-(4,5-dimethyl-2-thiazolyl)-2,5-diphenyltetrazolium bromide (MTT) solution (10 µL) was added to each well, and the cultures were incubated for an additional 4 h at 37°C. A further 100 µL of […] was added and incubation continued overnight at 37°C. The absorbance at 540 nm was determined in each well with a 96-well plate reader. The growth of the treated cells was compared with that of untreated cells. Half maximum inhibitory concentration (IC50) is a measurement of the efficacy of a substance in inhibiting a specific biological or biochemical process. […] In this experiment, the dose-response curve constructed by Spss22.0 software was used to calculate the inhibitory effect of the hybrid (0 μM-100 μM) on the activity of leukemia cell lines. Each experiment was performed independently in triplicate with three tests in each, and results were reported as mean inhibitory concentration IC50.

For data set [2], the system named is normal human peripheral blood mononuclear cells (PBMCs). Briefly: MTT cytotoxicity assay, normal PBMCs. The format is cell-based. As to conditions: PBMCs vs CCRF-CEM. How it is done: as §1
For orientation: Formazan colour is commonly taken as a measure of viable cells.

Data set [3] in a line: MTT cytotoxicity assay, normal PBMCs. As to conditions: normal peripheral blood mononuclear cells (PBMCs); MTT assay, normal human PBMCs. The format is cell-based, human. How it is done: as §1
Data set [4] concerns CCRF-CEM human acute lymphoblastic leukemia cell line. In words: MTT antiproliferative assay, CCRF-CEM. It counts as cell-based. How it is done: as §1, §2
For data set [5], the system named is K562/ADR human myeloid leukemia cell line. Briefly: MTT antiproliferative assay, K562/ADR. The format is cell-based. Here is the method: as §1, with “assay. The antiproliferative activity was expressed by half maximal inhibitory concentration (IC50) values, which were presented in Table 2 .” for “assay.”
as §2

As usually defined, the IC50 is the concentration at which inhibition is half-maximal. As for `CON=C1C(=O)N(CCC(=O)OC2O[C@@H]3O[C@@]4(C)CC[C@H]5[C@H](C)CC[C@@H]([C@H]2C)[C@@]35OO4)c2ccc(F)cc21` (stereo partly drawn) [hybrid 7h, (3R,5aS,6R,8aS,9R,12R,12aR)-3,6,9-trimethyldecahydro-12H-3,12-epoxy[1,2]dioxepino[4,3-i]isochromen-10-yl 3-(5-fluoro-3-(methoxyimino)-2-oxoindolin-1-yl)propanoate], the IC50 in data set [1] is greater than 100 µM; in data set [3], greater than 100 µM; in data set [4], 1.31 µM; in data set [5], 16.2 µM. Also, in data set [2], the “SI, Selectivity index, IC50(PBMCs)/IC50(CCRF-CEM)” value (“SI, Selectivity index” below) is greater than 76.33.

In the case of `CON=C1C(=O)N(CCC(=O)OC2O[C@@H]3O[C@@]4(C)CC[C@H]5[C@H](C)CC[C@@H]([C@H]2C)[C@@]35OO4)c2ccccc21` (stereo partly drawn) [hybrid 7e, (3R,5aS,6R,8aS,9R,12R,12aR)-3,6,9-trimethyldecahydro-12H-3,12-epoxy[1,2]dioxepino[4,3-i]isochromen-10-yl 3-(3-(methoxyimino)-2-oxoindolin-1-yl)propanoate], the IC50 in data set [1] was 3.78 µM; in data set [3], greater than 100 µM; in data set [4], 15.2 µM; in data set [5], 22.7 µM. In addition, the “SI, Selectivity index” value in data set [2] is reported as greater than 6.59.

In the case of `CON=C1C(=O)N(CC(=O)OC2O[C@@H]3O[C@@]4(C)CC[C@H]5[C@H](C)CC[C@@H]([C@H]2C)[C@@]35OO4)c2ccccc21` (stereo partly drawn) [hybrid 7a, (3R,5aS,6R,8aS,9R,12R,12aR)-3,6,9-trimethyldecahydro-12H-3,12-epoxy[1,2]dioxepino[4,3-i]isochromen-10-yl 2-(3-(methoxyimino)-2-oxoindolin-1-yl)acetate], the IC50 in data set [1] is 33.6 µM; in data set [3], greater than 100 µM; in data set [4], 3.83 µM; in data set [5], 49.8 µM. The “SI, Selectivity index” value in data set [2] is reported as greater than 26.10.

Consider `COc1cccc2c1C(=O)c1c(O)c3c(c(O)c1C2=O)C[C@@](O)(C(=O)CO)C[C@@H]3O[C@H]1C[C@H](N)[C@H](O)[C@H](C)O1` [Adriamycin, reference compound], for which the IC50 in data set [1] was 4.89 µM; in data set [3], 46.9 µM; in data set [4], 0.01 µM; in data set [5], greater than 100 µM. Further, in data set [2], the “SI, Selectivity index” value was 4690.

`CCON=C1C(=O)N(CCC(=O)OC2O[C@@H]3O[C@@]4(C)CC[C@H]5[C@H](C)CC[C@@H]([C@H]2C)[C@@]35OO4)c2ccccc21` (stereo partly drawn) [hybrid 7f, (3R,5aS,6R,8aS,9R,12R,12aR)-3,6,9-trimethyldecahydro-12H-3,12-epoxy[1,2]dioxepino[4,3-i]isochromen-10-yl 3-(3-(ethoxyimino)-2-oxoindolin-1-yl)propanoate]: the IC50 is 5.7 µM in data set [1], greater than 100 µM in data set [3], 9.16 µM in data set [4] and greater than 100 µM in data set [5]. Also, the “SI, Selectivity index” value in data set [2] is on record as greater than 10.91.

Consider `CCON=C1C(=O)N(CCCC(=O)OC2O[C@@H]3O[C@@]4(C)CC[C@H]5[C@H](C)CC[C@@H]([C@H]2C)[C@@]35OO4)c2ccc(F)cc21` (stereo partly drawn) [hybrid 7q, (3R,5aS,6R,8aS,9R,12R,12aR)-3,6,9-trimethyldecahydro-12H-3,12-epoxy[1,2]dioxepino[4,3-i]isochromen-10-yl 4-(3-(ethoxyimino)-5-fluoro-2-oxoindolin-1-yl)butanoate], for which the IC50 in data set [1] is 16 µM; in data set [3] it was greater than 100 µM; in data set [4] it was 12.7 µM; in data set [5] it was greater than 100 µM. For the same molecule, the “SI, Selectivity index” value in data set [2] is reported as greater than 7.85.

Take `CCON=C1C(=O)N(CCCC(=O)OC2O[C@@H]3O[C@@]4(C)CC[C@H]5[C@H](C)CC[C@@H]([C@H]2C)[C@@]35OO4)c2ccc(OC)cc21` (stereo partly drawn) [hybrid 7t, (3R,5aS,6R,8aS,9R,12R,12aR)-3,6,9-trimethyldecahydro-12H-3,12-epoxy[1,2]dioxepino[4,3-i]isochromen-10-yl 4-(3-(ethoxyimino)-5-methoxy-2-oxoindolin-1-yl)butanoate]: the IC50 in data set [1] is greater than 100 µM; in data set [3], greater than 100 µM; in data set [4], 1.9 µM; in data set [5], greater than 100 µM. Also, the “SI, Selectivity index” value in data set [2] is greater than 52.63.
